Data taken from paper PMC12445744, “Molecular docking to homology models of human and Trypanosoma brucei ERK8 that identified ortholog-specific inhibitors” (PLOS Neglected Tropical Diseases, 2025).
Values joined by “and” are separate entries in the source; they are usually repeats but may differ in a detail not shown here. Identical values can stand only once.

Target: T1, TbERK8 (Trypanosoma brucei brucei, UniProt Q38B88)
T1 sequence (Q38B88 1-442): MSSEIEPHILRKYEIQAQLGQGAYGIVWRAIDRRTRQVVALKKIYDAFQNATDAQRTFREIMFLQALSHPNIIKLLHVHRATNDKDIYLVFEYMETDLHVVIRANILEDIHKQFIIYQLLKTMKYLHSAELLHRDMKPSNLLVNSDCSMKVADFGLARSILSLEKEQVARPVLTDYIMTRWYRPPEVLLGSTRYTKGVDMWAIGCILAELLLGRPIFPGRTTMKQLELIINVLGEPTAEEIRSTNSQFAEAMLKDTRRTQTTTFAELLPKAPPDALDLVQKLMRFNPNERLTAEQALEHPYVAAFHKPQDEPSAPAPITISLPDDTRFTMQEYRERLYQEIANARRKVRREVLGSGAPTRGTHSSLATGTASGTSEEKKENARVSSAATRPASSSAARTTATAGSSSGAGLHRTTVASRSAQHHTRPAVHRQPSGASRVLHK
Assay: Luciferase-based kinase inhibition assay (ATP luminescence), GST-tagged TbERK8 with MBP substrate
Assay type: biochemical
Design: raw luminescence, TbERK8: unit of the concentration uncertain
Details: for raw luminescence, TbERK8: replicate wells; for Luminescence Raw (Kinase-Glo): TbERK8

In the case of `C[C@]12C=CC(=O)C=C1CC[C@@H]1[C@@H]2[C@@H](O)C[C@@]2(C)[C@H]1CC[C@]2(O)C(=O)CO` [Prednisolone], the IC50 is reported as greater than 10 mM, the “raw luminescence, TbERK8” value (0.00015 (unit uncertain) compound, sheet ADP_ATP_glo081724 (3)) is reported as 151.546 RLU and 115.356 RLU and 183.213 RLU and the “raw luminescence, TbERK8” value (0.00015 (unit uncertain) compound, sheet Kinase_glo 08142024 (2)) is reported as 851.739 RLU and 832.717 RLU and 648.843 RLU. The “raw luminescence, TbERK8” value (0.00015 (unit uncertain) compound, sheet Kinase_glo_080924_IFPS (2)) was 2863.49 RLU and 2847.77 RLU and 2549.07 RLU, the “raw luminescence, TbERK8” value (0.00061 (unit uncertain) compound, sheet ADP_ATP_glo081724 (3)) was 126.666 RLU and 99.523 RLU and 185.475 RLU and the “raw luminescence, TbERK8” value (0.00061 (unit uncertain) compound, sheet Kinase_glo 08142024 (2)) was 699.567 RLU and 777.766 RLU and 826.377 RLU. For the same molecule, the “raw luminescence, TbERK8” value (0.00061 (unit uncertain) compound, sheet Kinase_glo_080924_IFPS (2)) was 1033.1 RLU and 1001.66 RLU and 918.564 RLU, the “raw luminescence, TbERK8” value (0.00244 (unit uncertain) compound, sheet ADP_ATP_glo081724 (3)) was 151.546 RLU and 108.57 RLU and 214.879 RLU and the “raw luminescence, TbERK8” value (0.00244 (unit uncertain) compound, sheet Kinase_glo 08142024 (2)) was 716.475 RLU and 665.751 RLU and 646.73 RLU. The “raw luminescence, TbERK8” value (0.00244 (unit uncertain) compound, sheet Kinase_glo_080924_IFPS (2)) was 2143.15 RLU and 2092.68 RLU and 2029.79 RLU, the “raw luminescence, TbERK8” value (0.00977 (unit uncertain) compound, sheet ADP_ATP_glo081724 (3)) was 255.593 RLU and 147.022 RLU and 271.426 RLU and the “raw luminescence, TbERK8” value (0.00977 (unit uncertain) compound, sheet Kinase_glo 08142024 (2)) was 437.494 RLU and 490.331 RLU and 469.196 RLU. For the same molecule, the “raw luminescence, TbERK8” value (0.00977 (unit uncertain) compound, sheet Kinase_glo_080924_IFPS (2)) was 2030.86 RLU and 2806.27 RLU and 2958.99 RLU, the “raw luminescence, TbERK8” value (0.03906 (unit uncertain) compound, sheet ADP_ATP_glo081724 (3)) was 165.118 RLU and 117.618 RLU and 199.046 RLU and the “raw luminescence, TbERK8” value (0.03906 (unit uncertain) compound, sheet Kinase_glo 08142024 (2)) was 667.865 RLU and 653.07 RLU and 765.085 RLU. For the same molecule, the “raw luminescence, TbERK8” value (0.03906 (unit uncertain) compound, sheet Kinase_glo_080924_IFPS (2)) was 2637.83 RLU and 2496.34 RLU and 2622.11 RLU, the “raw luminescence, TbERK8” value (0.15625 (unit uncertain) compound, sheet ADP_ATP_glo081724 (3)) was 334.759 RLU and 251.069 RLU and 300.831 RLU and the “raw luminescence, TbERK8” value (0.15625 (unit uncertain) compound, sheet Kinase_glo 08142024 (2)) was 1037.73 RLU and 1041.95 RLU and 1113.81 RLU. For the same molecule, the “raw luminescence, TbERK8” value (0.15625 (unit uncertain) compound, sheet Kinase_glo_080924_IFPS (2)) was 2180.42 RLU and 2133.34 RLU and 2264.78 RLU, the “raw luminescence, TbERK8” value (0.62500 (unit uncertain) compound, sheet ADP_ATP_glo081724 (3)) was 495.353 RLU and 366.425 RLU and 545.114 RLU and the “raw luminescence, TbERK8” value (0.62500 (unit uncertain) compound, sheet Kinase_glo 08142024 (2)) was 1265.98 RLU and 1276.55 RLU and 1342.07 RLU. The “raw luminescence, TbERK8” value (0.62500 (unit uncertain) compound, sheet Kinase_glo_080924_IFPS (2)) was 3642.09 RLU and 3777.07 RLU and 3651.3 RLU, the “raw luminescence, TbERK8” value (2.50000 (unit uncertain) compound, sheet ADP_ATP_glo081724 (3)) was 791.659 RLU and 658.208 RLU and 870.825 RLU and the “raw luminescence, TbERK8” value (2.50000 (unit uncertain) compound, sheet Kinase_glo 08142024 (2)) was 2855.33 RLU and 2339.64 RLU and 2348.09 RLU. The “raw luminescence, TbERK8” value (2.50000 (unit uncertain) compound, sheet Kinase_glo_080924_IFPS (2)) was 13901.1 RLU and 13588.9 RLU and 13357.6 RLU, the “raw luminescence, TbERK8” value (10.00000 (unit uncertain) compound, sheet ADP_ATP_glo081724 (3)) was 8500.16 RLU and 8653.97 RLU and 8624.56 RLU and the “raw luminescence, TbERK8” value (10.00000 (unit uncertain) compound, sheet Kinase_glo 08142024 (2)) was 38026 RLU and 38805.9 RLU and 42117.7 RLU. The “raw luminescence, TbERK8” value (10.00000 (unit uncertain) compound, sheet Kinase_glo_080924_IFPS (2), signal = ATP left) was 19789.8 RLU and 19980.7 RLU and 19481.5 RLU, the “Luminescence Raw (Kinase-Glo)” value (inhibitor 0.00976562 mM, sheet Sil_Pred3, read 3) was 32992.2 and 33121 and 33174.9 and the “Luminescence Raw (Kinase-Glo)” value (inhibitor 0.0195312 mM, sheet Sil_Pred3, read 3) was 38593.5 and 41076.8 and 40952.6. For the same molecule, the “Luminescence Raw (Kinase-Glo)” value (inhibitor 0.0390625 mM, sheet Sil_Pred3, read 3) was 46486.1 and 45877 and 46038.6, the “Luminescence Raw (Kinase-Glo)” value (inhibitor 0.078125 mM, sheet Sil_Pred3, read 3) was 44202 and 48636.7 and 49203.6 and the “Luminescence Raw (Kinase-Glo)” value (inhibitor 0.15625 mM, sheet Sil_Pred3, read 3) was 45380.3 and 46230.7 and 46420.5. The “Luminescence Raw (Kinase-Glo)” value (inhibitor 0.3125 mM, sheet Sil_Pred3, read 3) was 39235.4 and 40486.4 and 39917.2, the “Luminescence Raw (Kinase-Glo)” value (inhibitor 0.625 mM, sheet Sil_Pred3, read 3) was 39298.7 and 39928.9 and 40873 and the “Luminescence Raw (Kinase-Glo)” value (inhibitor 0.00976562, sheet Sil_Pred1, read 1) was 36007.1 and 35961.3 and 35122.3. For the same molecule, the “Luminescence Raw (Kinase-Glo)” value (inhibitor 0.00976562, sheet Sil_Pred2, read 2) was 32848.9 and 34114.2 and 33997.9, the “Luminescence Raw (Kinase-Glo)” value (inhibitor 0.0195312, sheet Sil_Pred1, read 1) was 43841.6 and 45072.5 and 44815.8 and the “Luminescence Raw (Kinase-Glo)” value (inhibitor 0.0195312, sheet Sil_Pred2, read 2) was 39947.1 and 42452 and 42749.7. The “Luminescence Raw (Kinase-Glo)” value (inhibitor 0.0390625, sheet Sil_Pred1, read 1) was 50695.1 and 50667.6 and 49805.8, the “Luminescence Raw (Kinase-Glo)” value (inhibitor 0.0390625, sheet Sil_Pred2, read 2) was 46810.4 and 47329.1 and 47238.4 and the “Luminescence Raw (Kinase-Glo)” value (inhibitor 0.078125, sheet Sil_Pred1, read 1) was 49017.3 and 54222.7 and 54701.7. For the same molecule, the “Luminescence Raw (Kinase-Glo)” value (inhibitor 0.078125, sheet Sil_Pred2, read 2) was 44868.4 and 49845.5 and 51285.2, the “Luminescence Raw (Kinase-Glo)” value (inhibitor 0.15625, sheet Sil_Pred1, read 1) was 51194.8 and 52235.4 and 51680.7 and the “Luminescence Raw (Kinase-Glo)” value (inhibitor 0.15625, sheet Sil_Pred2, read 2) was 47366.3 and 47915.2 and 47922.2. The “Luminescence Raw (Kinase-Glo)” value (inhibitor 0.3125, sheet Sil_Pred1, read 1) was 44343.6 and 45716.6 and 43953.9, the “Luminescence Raw (Kinase-Glo)” value (inhibitor 0.3125, sheet Sil_Pred2, read 2) was 41235.6 and 41775.2 and 41631 and the “Luminescence Raw (Kinase-Glo)” value (inhibitor 0.625, sheet Sil_Pred1, read 1) was 43960.8 and 44712.6 and 44414.7. The “Luminescence Raw (Kinase-Glo)” value (inhibitor 0.625, sheet Sil_Pred2, read 2) was 40144.8 and 41517 and 41924.
